{
  "source": "ChEMBL document CHEMBL1212707",
  "about": "“Decoding endocannabinoid signaling” (Nat Chem Biol, 2009)",
  "key": {"Brain": {"test_system": "Brain", "experiment": "Increase in 2-arachidonoylglycerol level in mouse brain relative to untreated control", "format": "functional"}, "[1]": {"experiment": "Inhibition of MAGL"}, "Mus musculus": {"species_on_record": "Mus musculus", "experiment": "Inhibition of MAGL in mouse brain", "format": "tissue-based", "conditions": "dose or concentration not given here"}},
  "data": [
    {"molecule": "O=C(Oc1ccc([N+](=O)[O-])cc1)N1CCC(C(O)(c2ccc3c(c2)OCO3)c2ccc3c(c2)OCO3)CC1", "values": [
      {"measurement": "fold change (FC)", "setting": "Brain", "value": 8},
      {"measurement": "IC50", "setting": "[1]", "value": 8, "unit": "nM"},
      {"measurement": "inhibition", "setting": "Mus musculus", "value": 85, "unit": "%"}
    ]}
  ]
}
